Assay results as given in PubChem BioAssay (NCI).
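Growth conditions: 96-well plates. Treatment: test compound, 48 hours, 5 concentrations. Analysis: linear interpolation between bracketing concentrations; unreached endpoints set to highest concentration. Abbreviation: GI50, concentration required for 50% inhibition of growth. TGI is the concentration that stops growth completely.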

Tests used:
Assay in all cases: inhibition of tumour cell growth, NCI panel, 48 h
[1] = tested on: NCI-H460 lung
[2] = tested on: M14 melanoma
[3] = tested on: DU-145 prostate
[4] = tested on: K-562 leukemia
[5] = tested on: BT-549 breast
[6] = tested on: COLO 205 colon
[7] = tested on: LOX IMVI melanoma
[8] = tested on: MCF7 breast
[9] = tested on: OVCAR-5 ovarian
[10] = tested on: OVCAR-3 ovarian
[11] = tested on: SW-620 colon
[12] = tested on: SN12C renal
[13] = tested on: A498 renal
[14] = tested on: SF-268 CNS
[15] = tested on: UACC-62 melanoma
[16] = tested on: A549 NSCLC
[17] = tested on: HL-60(TB) leukemia
[18] = tested on: HT29 colon
[19] = tested on: RPMI-8226 leukemia
[20] = tested on: SNB-19 CNS
[21] = tested on: SK-OV-3 ovarian
[22] = tested on: HCC-2998 colon
[23] = tested on: SK-MEL-2 melanoma
[24] = tested on: HCT-15 colon
[25] = tested on: HCT-116 colon
[26] = tested on: OVCAR-8 ovarian
[27] = tested on: HOP-62 NSCLC
[28] = tested on: ACHN renal
[29] = tested on: PC-3 prostate
[30] = tested on: HOP-92 NSCLC
[31] = tested on: SK-MEL-28 melanoma
[32] = tested on: NCI-H23 lung
[33] = tested on: OVCAR-4 ovarian
[34] = tested on: MOLT-4 leukemia
[35] = tested on: SR leukemia
[36] = tested on: IGROV1 ovarian
[37] = tested on: MALME-3M melanoma
[38] = tested on: CCRF-CEM leukemia
[39] = tested on: UO-31 renal
[40] = tested on: SNB-75 CNS
[41] = tested on: CAKI-1 renal
[42] = tested on: HS 578T breast
[43] = tested on: EKVX NSCLC
[44] = tested on: KM12 colon
[45] = tested on: SK-MEL-5 melanoma
[46] = tested on: 786-0 renal
[47] = tested on: U251 CNS
[48] = tested on: NCI-H226 lung
[49] = tested on: NCI/ADR-RES ovarian
[50] = tested on: UACC-257 melanoma
[51] = tested on: TK-10 renal
[52] = tested on: SF-539 CNS
[53] = tested on: MDA-MB-231 breast

CC(=Nc1ccccc1)C1=C(O)C(Cc2ccc(O)cc2)NC1=O (stereo unspecified)
GI50 [1]: 0.0794 µM
TGI [1]: 1.08 µM
GI50 [2]: 0.0469 µM
TGI [2]: 0.269 µM
GI50 [3]: 0.178 µM
TGI [3]: 0.994 µM
GI50 [4]: 0.044 µM
TGI [4]: > 50.7 µM
GI50 [5]: 0.0577 µM
TGI [5]: 1.12 µM
GI50 [6]: 0.076 µM
TGI [6]: 0.28 µM
GI50 [7]: 0.152 µM
TGI [7]: > 23.1 µM
GI50 [8]: 0.0391 µM
TGI [8]: > 100 µM
GI50 [9]: 0.548 µM
TGI [9]: > 100 µM
GI50 [10]: 0.0258 µM
TGI [10]: 0.072 µM
GI50 [11]: 0.0485 µM
TGI [11]: > 100 µM
GI50 [12]: 0.991 µM
TGI [12]: > 100 µM
GI50 [13]: 0.255 µM
GI50 [14]: 0.117 µM
TGI [14]: > 80.2 µM
GI50 [15]: 0.058 µM
TGI [15]: > 100 µM
GI50 [16]: 0.126 µM
TGI [16]: > 100 µM
GI50 [17]: 0.0376 µM
TGI [17]: 0.176 µM
GI50 [18]: 0.0472 µM
TGI [18]: 0.452 µM
GI50 [19]: 0.169 µM
TGI [19]: > 100 µM
GI50 [20]: 0.23 µM
TGI [20]: > 100 µM
GI50 [21]: 0.162 µM
TGI [21]: > 50 µM
GI50 [22]: 0.124 µM
TGI [22]: 0.641 µM
GI50 [23]: 0.206 µM
TGI [23]: > 100 µM
GI50 [24]: 0.0585 µM
TGI [24]: > 46.8 µM
GI50 [25]: 0.0503 µM
TGI [25]: 1.93 µM
GI50 [26]: 0.255 µM
TGI [26]: > 100 µM
GI50 [27]: 0.106 µM
TGI [27]: 2.46 µM
GI50 [28]: 0.0738 µM
TGI [28]: > 100 µM
GI50 [29]: 0.0538 µM
TGI [29]: > 100 µM
GI50 [30]: 0.082 µM
TGI [30]: > 100 µM
GI50 [31]: 0.0594 µM
TGI [31]: > 100 µM
GI50 [32]: 0.139 µM
TGI [32]: > 100 µM
GI50 [33]: 0.385 µM
TGI [33]: > 100 µM
GI50 [34]: 0.371 µM
TGI [34]: > 100 µM
GI50 [35]: 0.0283 µM
GI50 [36]: 0.232 µM
GI50 [37]: 0.0477 µM
TGI [37]: > 100 µM
GI50 [38]: 0.131 µM
TGI [38]: > 100 µM
GI50 [39]: 0.321 µM
TGI [39]: > 100 µM
GI50 [40]: 0.07 µM
TGI [40]: 0.566 µM
GI50 [41]: 0.0635 µM
TGI [41]: > 100 µM
GI50 [42]: 0.0771 µM
GI50 [43]: 0.16 µM
TGI [43]: > 100 µM
GI50 [44]: 0.0472 µM
TGI [44]: 1.31 µM
GI50 [45]: 0.0512 µM
TGI [45]: 2.37 µM
GI50 [46]: 0.505 µM
TGI [46]: > 100 µM
GI50 [47]: 0.0609 µM
GI50 [48]: 0.968 µM
TGI [48]: > 100 µM
GI50 [49]: 0.0572 µM
TGI [49]: 0.793 µM
GI50 [50]: > 100 µM
TGI [50]: > 100 µM
GI50 [51]: 0.252 µM
TGI [51]: > 100 µM
GI50 [52]: 0.129 µM
TGI [52]: 0.703 µM
GI50 [53]: 1.06 µM
TGI [53]: > 100 µM
